The values below come from patent US5665745A, “Heterocyclic compounds and their preparation and use” (Eli Lilly and Company, priority 1995, dated 1997).

Read-outs that look alike come from different tables or passages of the source.

In assay [1] the target is muscarinic acetylcholine receptors. Kind of assay: inhibition of specific binding of ^3 H-Oxotremorine-M (^3 H-Oxo). The conditions noted are these: ^3 H-Oxotremorine 1.0 nM, rat cortex, 30 min. at 25° C. The arrangement: species or system rat (male Wistar. Summed up:
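Rat cortex membranes (male Wistar) in 20 mM Hepes pH 7.4 incubated with 1.0 nM ^3H-Oxotremorine-M (final) and test compound for 30 min at 25 °C; arecoline defines non-specific binding. Bound radioactivity by filtration and scintillation counting; IC50 (nM) from a single concentration via Co/Cx mass-action formula, reflecting high- and medium-affinity sites.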

Assay [2] addresses T1, muscarinic receptors (M1 -site, pirenzepine sensitive site) (Rattus norvegicus, UniProt P08482).
T1 construct: from tissue; host or cells: cerebral cortex membranes of male Wistar rats
T1 sequence (P08482 1-460): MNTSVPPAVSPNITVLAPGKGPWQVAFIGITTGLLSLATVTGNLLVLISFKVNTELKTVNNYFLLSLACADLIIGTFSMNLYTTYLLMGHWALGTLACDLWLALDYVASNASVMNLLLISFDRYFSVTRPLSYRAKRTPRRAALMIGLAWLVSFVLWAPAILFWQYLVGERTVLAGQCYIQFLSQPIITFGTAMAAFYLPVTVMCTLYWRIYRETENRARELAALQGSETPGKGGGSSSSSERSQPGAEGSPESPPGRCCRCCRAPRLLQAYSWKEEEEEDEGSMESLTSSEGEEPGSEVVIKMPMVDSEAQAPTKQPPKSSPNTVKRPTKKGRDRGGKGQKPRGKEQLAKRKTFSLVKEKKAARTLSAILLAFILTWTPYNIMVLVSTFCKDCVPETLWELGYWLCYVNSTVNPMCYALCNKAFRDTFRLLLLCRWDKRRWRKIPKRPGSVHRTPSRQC
Kind of assay: inhibition of ^3 HPRZ (pirenzepine, [N-methyl-^3 H]) binding to rat cerebral cortex membranes. The arrangement: species or system rat (male Wistar. Summed up: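 Male Wistar rat cortex membranes in 20 mM Hepes pH 7.4 were incubated with 1.0 nM (final) [3H]pirenzepine for 60 min at 20° C; nonspecific binding was defined with 1 μg/mL atropine. Filtration and scintillation counting were used, and IC50 was calculated from a single concentration assuming mass-action kinetics.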

The mark [3] stands for this setting: ^3 HPRZ 1.0 nM, rat cortex, 60 min. at 20° C., read-out: ^3 HPRZ IC50 (head from b208 on: Pir IC-50).

The term IC50 denotes the point on the concentration scale where inhibition reaches its midpoint. For the molecule `CCCCS(=O)(=O)c1nsnc1OC1CN2CCC1CC2` (racemic) [Compound 102, (±)-3-Butylsulfonyl-4-(1-azabicyclo[2.2.2]octyl-3-oxy)-1,2,5-thiadiazole], the IC50 in assay [1] amounted to 378 nM; in assay [2] (setting [3]), 187 nM.

Consider `C/C=C\COc1nsnc1OC1CN2CCC1CC2` (mixture of isomers) [Compound 110, (±)-3-(cis-2-butenyloxy)-4-(1-azabicyclo[2.2.2]octyl-3-oxy)-1,2,5-thiadiazole], for which the IC50 in assay [1] was 13.2 nM; in assay [2], 50.4 nM.

Turning to `CCCCSc1nsnc1O[C@@H]1CN2CC[C@@H]1C2` (relative stereo) [Compound 131, (±)exo-3-Butylthio-4-(1-azabicyclo[2.2.1]heptyl-3-oxy)-1,2,5-thiadiazole], the IC50 in assay [1] is 5.6 nM; in assay [2], 46 nM.

Consider `CCCCOc1nsnc1OC1CNC1` [Compound 50, 3-Butyloxy-4-(3-azetidinyloxy)-1,2,5-thiadiazole], for which the results for the IC50 in assay [1] and in assay [2] (setting [3]) were 92 nM and 351 nM, respectively.

As for `c1ccc(OCCSc2nsnc2OC2CN3CCC2CC3)cc1` (racemic) [Compound 44, (±)-3-(2-Phenyloxyethylthio)-4-(1-azabicyclo[2.2.2]octyl-3-oxy)-1,2,5-thiadiazole], the IC50 was determined as 7.1 nM in assay [1] and 15 nM in assay [2].

As for `CCCCSc1nsnc1O[C@@H]1CN2CCC[C@H]1C2` [Compound 137, (5S, 6S)-endo-3-Butylthio-4-(1-azabicyclo[3.2.1]octyl-6-oxy)-1,2,5-thiadiazole], the results for the half-inhibitory concentration (IC50) in assay [1] and in assay [2] (setting [3]) were 7.39 nM and 2.1 nM, respectively.

Turning to `C1CCC(CCOc2nsnc2O[C@@H]2CN3CCC[C@H]2C3)CC1` (relative stereo) [Compound 200, (±)-endo-3-(2-Cyclohexylethoxy)-4-(1-azabicyclo[3.2.1]octyl-6-oxy)-1,2,5-thiadiazole], the figures for the IC50 in assay [1] and in assay [2] (setting [3]) were 16 nM and 12 nM, respectively.

With `C1CC(COc2nsnc2OC2CN3CCC2CC3)C1` (racemic) [Compound 124, (±)-3-(Cyclobutylmethoxy)-4-(1-azabicyclo[2.2.2]octyl-3-oxy)-1,2,5-thiadiazole], the 50% inhibitory concentration (IC50) in assay [1] amounted to 5.8 nM; in assay [2], 54 nM.

For the molecule `CCCCSc1nsnc1OC1CCNC1` (racemic) [Compound 53, (±)-3-Butylthio-4-(3-pyrrolidnyloxy)-1,2,5-thiadiazole], the half-maximal inhibitory concentration (IC50) in assay [1] amounted to 24 nM; in assay [2] (setting [3]), 35 nM.

Regarding `Fc1ccc(OCCSc2nsnc2OC2CC3CCC2NC3)cc1` (mixture of isomers) [Compound 164, (±)-exo-3-(2-[Fluorophenoxy]ethylthio)-4-(2-azabicyclo[2.2.2]octyl-6-oxy)-1,2,5-thiadiazole], the IC50 in assay [1] came out at 5.28 nM; in assay [2] (setting [3]), 16.6 nM.

Turning to `CSCCOc1nsnc1O[C@@H]1CN2CCC[C@H]1C2` (relative stereo) [Compound 170, (±)-endo-3-(2-Methylthioethoxy)-4-(1-azabicyclo[3.2.1]octyl-6-oxy)-1,2,5-thiadiazole], the values for the half-inhibitory concentration (IC50) in assay [1] and in assay [2] (setting [3]) were 1.5 nM and 3 nM, respectively.

Consider `Clc1nsnc1O[C@H]1CN2CCC[C@@H]1C2` (relative stereo) [Compound 48, (±)-endo-3-Chloro-4-(1-azabicyclo [3.2.1]octyl-6-oxy)-1,2,5-thiadiazole], for which the IC50 in assay [1] was determined as 14 nM; in assay [2] it was 27 nM.

In the case of `CCCCOc1nsnc1OC[C@@H]1CCCN1C` [Compound 31, (S)-3-Butyloxy-4-(1-methyl-2-pyrrolidinylmethyloxy)-1,2,5-thiadiazole], the 50% inhibitory concentration (IC50) in assay [1] was 32 nM; in assay [2] (setting [3]), 12 nM.

In the case of `C1C[C@H]2CN(C1)C[C@H]2Oc1nsnc1OCCC1CC1` (relative stereo) [Compound 185], the IC50 in assay [1] worked out at 0.76 nM; in assay [2] (setting [3]), 2 nM.

Consider `c1ccc(CCCCSc2nsnc2OC2CN3CCC2CC3)cc1` (racemic) [Compound 148, (±)-3-(4-Phenylbutylthio)-4-(1-azabicyclo[2.2.2]octyl-3-oxy)-1,2,5-thiadiazole], for which the IC50 in assay [1] was determined as 8 nM; in assay [2] it was 25 nM.

Turning to `COc1ccc(CCCOc2nsnc2O[C@@H]2CN3CCC[C@H]2C3)cc1` (relative stereo) [Compound 193, (±)-endo-3-[3-(4-Methoxyphenyl)propoxy]-4-(1-azabicyclo[3.2.1]octyl-6-oxy)-1,2,5-thiadiazole], the IC50 turned out to be 3.7 nM in assay [1] and 10 nM in assay [2] (setting [3]).

As for `C/C=C/COc1nsnc1O[C@@H]1CN2CCC[C@H]1C2` (relative stereo) [Compound 169, (±)-endo-3-(trans-2-Butenyloxy)-4-(1-azabicyclo[3.2.1]octyl-6-oxy)-1,2,5-thiadiazole], the IC50 in assay [1] turned out to be 1 nM; in assay [2] (setting [3]), 1.9 nM.

As for `COc1nsnc1OC1CN2CCC1CC2` (racemic) [Compound 5, (±)-3-Methoxy-4-(1-azabicyclo[2.2.2]octyl-3-oxy)-1,2,5-thiadiazole], the IC50 in assay [1] worked out at 162 nM; in assay [2] (setting [3]), 183 nM.

On to `CCCCSc1nsnc1OC1CC2CCC1NC2` (racemic) [Compound 65, (±)3-Butylthio-4-(exo-2-azabicyclo[2.2.2]oct-6-yloxy)-1,2,5-thiadiazole], for which the figures for the 50% inhibitory concentration (IC50) in assay [1] and in assay [2] (setting [3]) were 2.3 nM and 0.72 nM, respectively.

With `c1ccc(OCCOc2nsnc2OC2CN3CCC2CC3)cc1` (racemic) [Compound 112, (±)-3-(2-Phenoxyethoxy)-4-(1-azabicyclo[2.2.2]octyl-3-oxy)-1,2,5-thiadiazole], the IC50 in assay [1] was 16 nM; in assay [2] (setting [3]) it was 153 nM.

`CC(C)=CCCOc1nsnc1O[C@@H]1CN2CCC[C@H]1C2` (relative stereo) [Compound 180, (±)-endo-3-(4-Methyl-3-pentenyloxy)-4-(1-azabicyclo[3.2.1]octyl-6-oxy)-1,2,5-thiadiazole]: the IC50 in assay [1] was 4.7 nM; in assay [2] (setting [3]) it was 11 nM.

Consider `FCCCCOc1nsnc1O[C@@H]1CN2CCC[C@H]1C2` (relative stereo) [Compound 197, (±)-endo-3-(4-Fluorobutoxy)-4-(1-azabicyclo[3.2.1]octyl-6-oxy)-1,2,5-thiadiazole], for which the IC50 in assay [1] was found to be 2.3 nM; in assay [2] (setting [3]), 6.9 nM.

Regarding `COc1ccc(CCCOc2nsnc2OC2CN3CCC2CC3)cn1` (racemic) [Compound 119, (±)-3-(3-[2-Methoxy-5-pyridyl]propyloxy)-4-(1-azabicyclo[2.2.2]octyl-3-oxy)-1,2,5-thiadiazole], the IC50 turned out to be 17 nM in assay [1] and 124 nM in assay [2] (setting [3]).

As for `CCCS(=O)(=O)c1nsnc1OC1CN2CCC1CC2` (racemic) [Compound 103, (±)-3-propylsulfonyl-4-(1-azabicyclo[2.2.2]octyl-3-oxy)-1,2,5-thiadiazole], the IC50 was determined as 107 nM in assay [1] and 115 nM in assay [2] (setting [3]).

Consider `FC(F)(F)c1ccc(CCCSc2nsnc2OC2CN3CCC2CC3)cc1` (racemic) [Compound 74, (±)3-{3-[4-(Trifluoromethyl)phenyl]propylthio}-4-[-3-(1-azabicyclo[2.2.2]octyloxy)]-1,2,5-thiadiazole], for which the values for the IC50 in assay [1] and in assay [2] were 24 nM and 40 nM, respectively.

`CCCCOc1nsnc1O[C@@H]1CN2CC[C@H]1C2` (relative stereo) [Compound 25, (±)-endo-3-Butyloxy-4-(1-azabicyclo[2.2.1]heptyl-3-oxy)-1,2,5-thiadiazol]: the values for the IC50 in assay [1] and in assay [2] were 1.8 nM and 2.1 nM, respectively.

Consider `c1csc(CCOc2nsnc2O[C@@H]2CN3CCC[C@H]2C3)c1` (relative stereo) [Compound 189, (±)-endo-3-[2-(2-Thienyl)ethoxy]-4-(1-azabicyclo[3.2.1]octyl-6-oxy)-1,2,5-thiadiozole], for which the IC50 in assay [1] was 1.7 nM; in assay [2] (setting [3]) it was 3.8 nM.

As to `c1ccc(SCCOc2nsnc2OC2CN3CCC2CC3)cc1` (racemic) [Compound 126, (±)-3-(2-[Phenylthio]ethoxy)-4-(1-azabicyclo[2.2.2]octyl-3-oxy)-1,2,5-thiadiazole], the results for the IC50 in assay [1] and in assay [2] were 19 nM and 72 nM, respectively.

Regarding `Brc1ccc(OCCOc2nsnc2OC2CN3CCC2CC3)cc1` (racemic) [Compound 128, (±)-3-(2-[4-Bromophenoxy]ethoxy)-4-(1-azabicyclo[2.2.2]octyl-3-oxy)-1,2,5-thiadiazole], the IC50 in assay [1] worked out at 6.9 nM; in assay [2] (setting [3]), 109 nM.

Regarding `CCCCCOc1nsnc1OC1CN2CCC1CC2` (racemic) [Compound 9, (±)-3-Pentyloxy-4-(1-azabicyclo[2.2.2]octyl-3-oxy)-1,2,5-thiadiazole], the IC50 is 11 nM in assay [1] and 25 nM in assay [2].

On to `CC#CCOc1nsnc1OC1CN2CCC1CC2` (racemic) [Compound 105, (±)-3-(2-butynyloxy)-4-(1-azabicyclo[2.2.2]octyl-3-oxy)-1,2,5-thiadiazole], for which the IC50 in assay [1] turned out to be 7.9 nM; in assay [2], 65.6 nM.
